We go through one molecule from patent US20100028889A1, “COMPANION DIAGNOSTIC ASSAYS FOR CANCER THERAPY” (ABBOTT LABORATORIES, priority 2006, published 2010).

Like-named read-outs stand apart in the source and are kept apart here.

The subject of one test is Rec-1. The test can be described thus: cell cytotoxicity EC50, CellTiter Glo, Mantle Cell Lymphoma cell line, Rec-1 sub-clone batch listed second. The class given is cell-based, human. On the procedure:
The SCLC and leukemia/lymphoma cell lines listed below were obtained from the American Type Culture Collection (Manassas, Va.), Deutsche Sammlung von Mikroorganismen und Zellkulturen (DSMZ, Braunsweig, Germany), or were the generous gift from Dr. Louis Staudt (National Cancer Institute) and were cultured as described in Tse, C., Shoemaker, A. R., Adickes, J., et al., “ABT-263: a potent and orally bioavailable Bcl-2 family inhibitor,” Cancer Res 2008; 68: 3421-3428; and Tahir, S. K., Yang, X., Anderson, M. G., et al., “Influence of Bcl-2 family members on the cellular response of small-cell lung cancer cell lines to ABT-737,” Cancer Res 2007; 67: 1176-1183.
(§1) Cells were treated at 10,000 or 50,000 cells per well for adherent or suspension cells, respectively, in 96-well microtiter plates in the presence of 10% human serum for 48 hours with or without ABT-263, in a humidified chamber with 5% CO2. ABT-263 was synthesized as previously described in Tse, C., Shoemaker, A. R., Adickes, J., et al., “ABT-263: a potent and orally bioavailable Bcl-2 family inhibitor,” Cancer Res 2008; 68: 3421-3428; and Oltersdorf, T., Elmore, S. W., Shoemaker, A. R., et al., “An inhibitor of Bcl-2 family proteins induces regression of solid tumours,” Nature 2005; 435: 677-681, and cell cytotoxicity EC50 values were assessed using CellTiter Glo (Promega, Madison Wis.).
Background: In ATP-based viability assays light output follows the ATP content of the culture.

Test [1] deals with leukemia/lymphoma cell lines. The test can be described thus: categorisation of the leukemia/lymphoma cell line panel by EC50. The class given is cell-based, human. Particulars: EC50 less than or equal to 4.8 μM. On the procedure:
as §1
o divide the training set cell lines into sensitive and resistant categories, a bivariate fit curve was generated for the ABT-263 EC50 versus rank and fitted with a smoothing spline (lambda=1), and the maximum increase in the slope was approximately 5 μM for both sets. […]
Division of cell lines into sensitive and resistant categories. […] To identify gene expression patterns that can predict sensitivity to ABT-263, as well as genes that might contribute to resistance to treatment, RNA expression profiles for a panel of SCLC cell lines were determined, as well as a panel of leukemia and lymphoma cell lines. […]

Turning to `CC1(C)CCC(c2ccc(Cl)cc2)=C(CN2CCN(c3ccc(C(=O)NS(=O)(=O)c4ccc(N[C@H](CCN5CCOCC5)CSc5ccccc5)c(S(=O)(=O)C(F)(F)F)c4)cc3)CC2)C1` [ABT-263, N-(4-(4-((2-(4-chlorophenyl)-5,5-dimethyl-1-cyclohex-1-en-1-yl)methyl)piperazin-1-yl)benzoyl)-4-(((1R)-3-(morpholin-4-yl)-1-((phenylsulfanyl)methyl)propyl)amino)-3-((trifluoromethyl)sulfonyl)benzenesulfonamide], the EC50 is no more than 4.8 µM in the test on Rec-1 (Homo sapiens, Rec1, read-out: Response Designation) and 0.698 µM in the test with Rec-1 (Rec1, 10% human serum, 48 hours, read-out: EC50). Besides, the “leukemia/lymphoma cell lines categorized as being sensitive” value in test [1] was 25 out of 31.
